Measurements published in patent US20250353891A1 (MEDIMMUNE LIMITED, priority 2022, published 2025).
Starred links: 1 amine or outer side, 2 acyl side, 3 side chain; linkers in the order of their positions; H or OH if unused. Non-standard residues stand in square brackets, D forms with d. Residues, ends and D or L forms follow the SMILES beside them. Groups on a side chain read outwards from the residue. *: point of attachment. C20 diacid = O=C(O)CCCCCCCCCCCCCCCCCCC(=O)*; γGlu = O=C(O)[C@H](CCC(=O)[*:2])N[*:1]; αMeF = C[C@](N)(Cc1ccccc1)C(=O)O; PEG2 = NCCOCCOCCC(=O)O; AEEA = NCCOCCOCC(=O)O; Aib = CC(C)(N)C(=O)O

Key:
[1] = target: human GLP-1 receptor (hGLP-1R) (Homo sapiens, UniProt P43220); test: cAMP production (HTRF) in CHO cells expressing hGLP-1R; format: cell-based; set-up: expressed in transfected cells; conditions: for % Relative Potency Ratio: % GLP-1R activity relative to GLP-1 / % GlucR activity relative to glucagon; for EC50: hGLP-1R EC50 (pM)
Outline: (§1)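 Read-out: HTRF cAMP (anti-cAMP cryptate donor, cAMP-d2 acceptor in conjugate/lysis buffer), converted to % Delta F and fitted by 4-parameter logistic for EC50. Cell densities were 1×10^5 cells/mL (hGLP-1R) or 2×10^5 cells/mL (hGCGR). Stimulation lasted 30 min at room temperature.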

[2] = target: human glucagon receptor (hGCGR) (Homo sapiens, UniProt P47871); test: cAMP production (HTRF) in CHO cells expressing hGCGR; format: cell-based; set-up: expressed in transfected cells; conditions: hGluc-R EC50 (pM), cAMP, CHO cells, 0.1% BSA, geometric mean
Outline: as §1

human GLP-1 receptor (hGLP-1R), sequence (P43220 24-463): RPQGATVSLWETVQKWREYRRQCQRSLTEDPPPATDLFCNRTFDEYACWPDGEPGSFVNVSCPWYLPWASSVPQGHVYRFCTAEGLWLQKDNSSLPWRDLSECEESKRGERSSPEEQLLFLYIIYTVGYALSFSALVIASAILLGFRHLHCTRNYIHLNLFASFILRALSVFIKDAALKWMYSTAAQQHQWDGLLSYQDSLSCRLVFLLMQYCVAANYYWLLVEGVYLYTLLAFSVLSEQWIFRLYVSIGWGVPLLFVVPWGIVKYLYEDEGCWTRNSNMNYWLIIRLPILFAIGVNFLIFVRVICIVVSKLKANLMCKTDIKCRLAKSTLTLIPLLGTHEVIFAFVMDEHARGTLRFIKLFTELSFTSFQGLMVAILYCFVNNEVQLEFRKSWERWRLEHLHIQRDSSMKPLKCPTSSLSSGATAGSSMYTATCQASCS
human glucagon receptor (hGCGR), sequence (P47871 26-477): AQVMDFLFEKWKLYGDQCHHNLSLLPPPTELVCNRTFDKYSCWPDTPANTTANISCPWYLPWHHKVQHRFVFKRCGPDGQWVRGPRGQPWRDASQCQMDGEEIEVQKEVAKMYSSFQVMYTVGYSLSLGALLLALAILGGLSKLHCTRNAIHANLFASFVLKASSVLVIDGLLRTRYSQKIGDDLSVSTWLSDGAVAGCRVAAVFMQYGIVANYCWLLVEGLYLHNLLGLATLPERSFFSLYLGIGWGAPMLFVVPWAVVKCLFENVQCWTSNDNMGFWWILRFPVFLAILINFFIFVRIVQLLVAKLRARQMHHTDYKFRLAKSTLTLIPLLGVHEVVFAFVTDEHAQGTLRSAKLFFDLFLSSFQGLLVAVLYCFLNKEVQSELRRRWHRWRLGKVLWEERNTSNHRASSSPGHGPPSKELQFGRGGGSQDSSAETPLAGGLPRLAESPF

SMILES | % Relative Potency Ratio [1] | EC50 [1] [pM] | EC50 [2] [pM]
CC[C@H](C)[C@H](NC(=O)[C@H](Cc1c[nH]c2ccccc12)NC(=O)[C@H](CCCCNC(=O)CC[C@H](NC(=O)CCCCCCCCCCCCCCCCCCC(=O)O)C(=O)O)NC(=O)[C@@H](NC(=O)[C@H](Cc1ccccc1)NC(=O)[C@H](CC(=O)O)NC(=O)[C@H](CCC(N)=O)NC(=O)[C@H](C)NC(=O)[C@H](C)NC(=O)[C@H](CCC(N)=O)NC(=O)[C@H](CO)NC(=O)[C@H](CC(=O)O)NC(=O)[C@H](CC(C)C)NC(=O)[C@](C)(Cc1ccccc1)NC(=O)[C@H](CCCCN)NC(=O)[C@H](CO)NC(=O)[C@@H](NC(=O)[C@H](CC(=O)O)NC(=O)[C@H](CO)NC(=O)[C@@H](NC(=O)[C@](C)(Cc1ccccc1)NC(=O)[C@H](CO)NC(=O)CNC(=O)[C@H](Cc1c[nH]cn1)NC(=O)C(C)(C)NC(=O)[C@@H](N)Cc1c[nH]cn1)[C@@H](C)O)C(C)C)C(C)C)C(=O)N[C@@H](C)C(=O)N[C@@H](CC(N)=O)C(=O)N[C@H](C(N)=O)[C@@H](C)O [Peptide 354] | 1.6 | 1110 | 902
CC[C@H](C)[C@H](NC(=O)[C@H](Cc1c[nH]c2ccccc12)NC(=O)[C@H](CCCCNC(=O)CCOCCOCCNC(=O)CCOCCOCCNC(=O)CC[C@H](NC(=O)CC[C@H](NC(=O)CCCCCCCCCCCCCCCCCCC(=O)O)C(=O)O)C(=O)O)NC(=O)[C@@H](NC(=O)[C@H](Cc1ccccc1)NC(=O)[C@H](CC(=O)O)NC(=O)[C@H](CCC(N)=O)NC(=O)[C@H](C)NC(=O)[C@H](C)NC(=O)[C@H](CCC(N)=O)NC(=O)[C@H](CO)NC(=O)[C@H](CC(=O)O)NC(=O)[C@H](CC(C)C)NC(=O)[C@](C)(Cc1ccccc1)NC(=O)[C@H](CCCCN)NC(=O)[C@H](CO)NC(=O)[C@@H](NC(=O)[C@H](CC(=O)O)NC(=O)[C@H](CO)NC(=O)[C@@H](NC(=O)[C@](C)(Cc1ccccc1)NC(=O)[C@H](CO)NC(=O)CNC(=O)[C@H](Cc1c[nH]cn1)NC(=O)C(C)(C)NC(=O)[C@@H](N)Cc1c[nH]cn1)[C@@H](C)O)C(C)C)C(C)C)C(=O)N[C@@H](C)C(=O)N[C@@H](CC(N)=O)C(=O)N[C@H](C(N)=O)[C@@H](C)O [Peptide 355] (H-H[Aib]HGS[αMeF]TSDVSK[αMeF]LDSQAAQDFVK([PEG2-PEG2-γGlu-γGlu-C20 diacid])WIANT-NH2; N-terminus assumed) | 2.2 | 424 | 478
CC[C@H](C)[C@H](NC(=O)[C@H](Cc1c[nH]c2ccccc12)NC(=O)[C@H](CCCCNC(=O)COCCOCCNC(=O)COCCOCCNC(=O)CC[C@H](NC(=O)CCCCCCCCCCCCCCCCCCC(=O)O)C(=O)O)NC(=O)[C@@H](NC(=O)[C@H](Cc1ccccc1)NC(=O)[C@H](CC(=O)O)NC(=O)[C@H](CCC(N)=O)NC(=O)[C@H](C)NC(=O)[C@H](C)NC(=O)[C@H](CCC(N)=O)NC(=O)[C@H](CO)NC(=O)[C@H](CC(=O)O)NC(=O)[C@H](CC(C)C)NC(=O)[C@](C)(Cc1ccccc1)NC(=O)[C@H](CCCCN)NC(=O)[C@H](CO)NC(=O)[C@@H](NC(=O)[C@H](CC(=O)O)NC(=O)[C@H](CO)NC(=O)[C@@H](NC(=O)[C@](C)(Cc1ccccc1)NC(=O)[C@H](CO)NC(=O)CNC(=O)[C@H](Cc1c[nH]cn1)NC(=O)C(C)(C)NC(=O)[C@@H](N)Cc1c[nH]cn1)[C@@H](C)O)C(C)C)C(C)C)C(=O)N[C@@H](C)C(=O)N[C@@H](CC(N)=O)C(=O)N[C@H](C(N)=O)[C@@H](C)O [Peptide 356] (H-H[Aib]HGS[αMeF]TSDVSK[αMeF]LDSQAAQDFVK([AEEA-AEEA-γGlu-C20 diacid])WIANT-NH2; N-terminus assumed) | 2.1 | 304 | 316
